# Patent US11840551B2, “Compositions and methods of modulating the immune response by activating alpha protein kinase 1” (Shanghai Yao Yuan Biotechnology Co., Ltd., priority 2017, dated 2023)
# Experiments:
# [1] = tested on: CT26 cells; assay: CT26 tumor xenograft model, tumor growth (tumor volume); type: in vivo, BALB/c mice; conditions: Example 18, FIG. 30; 50 nmol, injections at days 7, 9, 11
# Protocol: We used a CT26 tumor xenograft model to test the anti-cancer activity of H1b-ADP. Tumor cells (2×10^5 per 100 uL CT26 cells) were inoculated subcutaneously into the right flank of BALB/c mice. At day 6, mice whose tumors had reached 3-5 mm in diameter were randomized and grouped into three groups (n=8 each group), control, HMP-1bP (580 ug), and H1b-ADP (1.2 ug). Injections were performed using a total volume of 20 uL at days 6, 8, 10, 12, and 14 post inoculation. Tumor volumes were calculated every 2 days from caliper measurements of tumor dimension using the formula (L×W^2)/2, where L is the longer measurement.
# To test whether H1b-ADP could augment an anti-tumor response by a checkpoint inhibitor, we tested the effects of co-administration with an anti-PD1 antibody. Tumor cells (2×10^5 per 100 μL CT26 cells) were inoculated subcutaneously into the left and right flanks of BALB/c mice. At day 7, mice whose tumors had reached 5 mm in diameter were randomized and grouped (n=8 each group) into the following four groups: anti-PD1 antibody; rat IgG; H1b-ADP+rat IgG; H1b-ADP+anti-PD1 antibody. We utilized RMP1-14 as the anti-PD1 antibody (10 mg/kg) and a rat IgG 2a (2A3) as the control IgG. Each of the anti-PD-1 antibody and the control IgG was administered intraperitoneally in a 200 μL volume on days 6, 10, 12, and 17 post-inoculation. H1b-ADP (6.2 μg) was intratumorally injected in a 20 μL volume at day 6, 8, 10, 12, and 15. Tumor volumes were calculated every 2 days from caliper measurements of tumor dimensions using the formula (L×W^2)/2, where L is the longer measurement. The results are shown in FIG. 13A for injected tumors and FIG. 13B for distant tumors. […]
# The experiment was carried out as combo experiments of anti-PD1 except for the following variations. At day 6, mice whose tumors had reached 5 mm in diameter were randomized and grouped into the following four groups: anti-CTLA-4 antibody; rat IgG; H1b-ADP+rat IgG; H1b-ADP+anti-CTLA-4 antibody. We utilized 9D9 (BioxCell) as the anti-CTLA-4 antibody and a rat IgG 2b isotype (MPC-11 clone, BE0086, BioXCell) as the control IgG. Each of the anti-CTLA-4 antibody (25 μg) and the control IgG (25 μg) was administered intraperitoneally in a 200 μL volume on days 6 and 9 post-inoculation. H1b-ADP (6.2 μg) was administered intratumorally in a 20 μL volume on days 6, 7, 9, 11 post-inoculation.
# The experiment was carried out as combo experiments of anti-PD1 except for the following variations. At day 6, mice whose tumors had reached 5 mm in diameter were randomized and grouped into the following four groups: c-di-AM(PS)2; PBS; H1b-ADP; H1b-ADP+c-di-AM(PS)2. We utilized c-di-AM(PS)2 as the STING agonist. […]
# [2] = target: T1, ALPK1 (Homo sapiens, UniProt Q96QP1); assay: IL8 secretion in HEK293 cells (IL8 ELISA) as indicator of ALPK1 activation; conditions: for IL8 secretion in HEK293 cells: without FBS, serial dilutions, 4 hours; for restoration of H1b-ADP's activity in the cell based assay (IL8 secretion): added to the FBS-containing medium, HEK293 cells
# T1 sequence (Q96QP1 whole entry): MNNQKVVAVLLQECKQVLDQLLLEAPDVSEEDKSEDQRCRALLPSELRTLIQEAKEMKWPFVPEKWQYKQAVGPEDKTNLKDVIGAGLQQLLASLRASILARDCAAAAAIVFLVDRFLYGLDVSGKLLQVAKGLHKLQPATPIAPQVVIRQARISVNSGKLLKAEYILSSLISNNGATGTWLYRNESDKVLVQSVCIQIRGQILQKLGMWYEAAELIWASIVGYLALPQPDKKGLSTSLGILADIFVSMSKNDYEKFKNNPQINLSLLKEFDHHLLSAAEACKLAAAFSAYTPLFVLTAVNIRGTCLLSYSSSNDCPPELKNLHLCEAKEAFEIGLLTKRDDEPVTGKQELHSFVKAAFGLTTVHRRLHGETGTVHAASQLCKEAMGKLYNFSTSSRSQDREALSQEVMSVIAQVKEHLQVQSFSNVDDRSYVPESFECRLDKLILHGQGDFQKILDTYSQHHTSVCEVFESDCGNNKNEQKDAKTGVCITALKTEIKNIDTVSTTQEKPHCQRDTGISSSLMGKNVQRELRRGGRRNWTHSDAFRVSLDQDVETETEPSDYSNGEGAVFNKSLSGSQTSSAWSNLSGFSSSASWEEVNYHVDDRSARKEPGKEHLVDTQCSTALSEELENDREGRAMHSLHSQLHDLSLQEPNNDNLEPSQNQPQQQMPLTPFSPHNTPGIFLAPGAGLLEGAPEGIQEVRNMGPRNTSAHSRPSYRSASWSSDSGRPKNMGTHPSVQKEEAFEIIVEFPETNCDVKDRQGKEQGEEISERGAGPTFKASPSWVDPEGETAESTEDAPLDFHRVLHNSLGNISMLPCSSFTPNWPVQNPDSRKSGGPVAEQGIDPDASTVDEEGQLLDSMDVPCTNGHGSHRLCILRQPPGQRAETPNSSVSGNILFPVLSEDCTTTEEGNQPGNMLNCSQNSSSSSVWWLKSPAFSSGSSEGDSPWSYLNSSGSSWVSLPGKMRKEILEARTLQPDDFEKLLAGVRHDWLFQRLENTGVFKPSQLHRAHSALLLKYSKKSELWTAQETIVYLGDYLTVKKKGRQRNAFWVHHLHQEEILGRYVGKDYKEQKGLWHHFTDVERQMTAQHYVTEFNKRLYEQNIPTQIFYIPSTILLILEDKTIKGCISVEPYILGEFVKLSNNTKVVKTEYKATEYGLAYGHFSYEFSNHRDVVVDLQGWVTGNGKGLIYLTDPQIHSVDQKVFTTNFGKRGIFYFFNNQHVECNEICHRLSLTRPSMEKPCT
# Protocol: Phosphatase such as the alkaline phosphatase may be responsible for H1b-ADP hydrolysis. We pre-mixed H1b-ADP with phosphatase inhibitor sodium orthovanadate (Na3VO4) before incubation with FBS. […] We hypothesized that the accumulation of hydrolysis product AMP can inhibit phosphatase activity.
# A number of H1b-ADP derivative compounds were made as described herein and tested for biological activity as agonists of ALPK1 in vitro. In these experiments, serial dilutions of the compounds were added to the tissue culture media of HEK293 cells with (FIG. 27B, FIG. 28B, FIG. 29B) or without (FIG. 26, FIG. 27A, FIG. 28A, FIG. 29A) 10% FBS, as indicated in the figures. After 4 hours, the cell supernatant was collected and analyzed for IL8 concentration using IL8 ELISA (BD) as an indicator of ALPK1 activation.
# [3] = tested on: phosphatase activity in the serum; assay: Incubation of H1b-ADP with FBS, product analysed by LC-MS; type: in vitro ADME, bovine
# Description: (§1) FBS contains 110-352 μU/ml alkaline phosphatase.
# [4] = tested on: Cxcl1, Cxcl11, IL1b, and IL6 in mouse liver and lung tissue; assay: Tissue expression of chemokines and cytokines after subcutaneous injection (qPCR); type: in vivo, C57 mice; conditions: subcutaneous, 2, 10, 50, 200 nmol tested, tissue harvested three hours later
# Protocol: In additional experiments, Compound 1 was injected subcutaneously into 7 week old C57 mice at concentrations of 2, 10, 50, and 200 nmol. Tissue was harvested three hours later and RNA extracted. Quantitative PCR (qPCR) was performed to determine the tissue expression levels Cxcl1, Cxcl11, IL1b, and IL6 in mouse liver (FIG. 32A) and lung (FIG. 32B) tissue. Additional chemokines and cytokines were assayed in the lung tissue.
# [5] = target: T1, ALPK1; assay: In vitro kinase assay of ALPK1-dependent TIFA phosphorylation; type: biochemical
# Protocol: We performed an in vitro kinase assay with H1b-ADP and H1b-ADP-6L along with ALPK1 protein (2 nM), and TIFA protein (1.6 uM) in kinase buffer containing 50 uM ATP. TIFA phosphorylation was analyzed by denaturing gel electrophoresis followed by western blotting using an anti-phosphothreonine antibody. H1b-ADP or H1b-ADP-6L was added at 2 nM, 0.4 nM, 80 pM, 16 pM, and 3 pM.
# To test this, we performed an in vitro kinase reaction for ALPK1-dependent TIFA phosphorylation in the presence of either HBP or HIdA purified from E. coli containing inactivated HIdE, or in the presence of HBP and HIdA purified from the same HIdE wild-type E. coli used in the previous experiments. Phosphorylated TIFA (three concentrations, 1%, 0.2% and […]) was detected as described above by denaturing gel electrophoresis followed by Western analysis.
# [6] = target: T1, ALPK1; assay: Thermal shift assay (SYPRO Orange) for binding to ALPK1; conditions: ALPK1 7 uM; 1, 5, 25, 125 uM compound; H1b-ADP shift at 5, 25 and 125 uM
# Description: The thermal shift assay is widely used to determine the binding of a molecule to a protein of interest. The assay is based on the increase in thermal energy required for denaturation of a protein where another molecule is bound to the protein. SYPRO Orange is a fluorescent compound used in the detection of thermal shift. SYPRO Orange binds to hydrophobic surfaces of the protein, and water strongly quenches its fluorescence. When the protein unfolds, the exposed hydrophobic surfaces bind the dye, resulting in an increase in fluorescence. When another molecule is bound to the protein, an increase in the temperature required for unfolding of the protein is observed.
# This assay system was used to determine whether or not chemically synthesized HBP, HMP-1bP, and H1b-ADP directly bind to ALPK1. […] Only H1b-ADP induced a shift of more than 1 degree, at each of the three highest concentrations tested, 5 uM, 25 uM, and 125 uM.
# [7] = target: T1, ALPK1; assay: Cell-free kinase assay of ALPK1 autophosphorylation (Western, anti-phospho-threonine); type: biochemical; conditions: 2 nM ALPK1 with ATP, 25° C., 1 h; H1b-ADP 10, 1, 0.2 nM; HBP and HMP-1bP 1, 10, 100 nM
# Protocol: ALPK1 activation results in its autophosphorylation. Accordingly, we next asked whether the binding of H1b-ADP to ALPK1 was sufficient to induce ALPK1 autophosphorylation. Phosphorylation assays were performed according to standard protocols. Briefly, ALPK1 was incubated (2 nM, 25° C., 1 h) in assay buffer (20 μl, 25 mM HEPES pH 7.5, 50 mM KCl, 0.1 mM EDTA, 0.1 mM EGTA, 2 mM DTT, 1.5 mM CaCl2, 10 mM MgCl2) with ATP and chemically synthesized HBP, HMP-1bP, or H1b-ADP followed by denaturing gel electrophoresis and Western analysis with an anti-phospho-threonine antibody (CST) to detect autophosphorylation of ALPK1. […] The range of concentrations of HBP and HMP-1bP used in this assay (1 nM, 10 nM, 100 nM) was 10-fold higher than that used for H1b-ADP.
# [8] = target: T1, ALPK1; assay: IL-8 and TNFα mRNA expression in HEK293 cells with control or ALPK1-directed siRNA (qPCR); type: cell-based; parameters: silence ALPK1 expression in HEK293 cells; endogenous in cells; host or cells: HEK293; conditions: control vs ALPK1-directed siRNA, 4 hours, HBP 500, 100, 20 uM, HMP-1bP 500, 100 uM, H1b-ADP 100, 20, 4, 0.8 nM
# Protocol: To test whether HBP, HMP-1bP, and H1b-ADP were able to induce cytokine expression in an ALPK1 dependent manner, we used an ALPK1-directed small interfering RNA (siRNA) to silence ALPK1 expression in HEK293 cells. Cells were plated (1×10^4 cells/well) into 96-well plates and transfected with either control siRNA or ALPK1-directed siRNA according to the manufacturer's protocols (Lipofectamine™ RNAiMax™, Invitrogen 13778075). Following 2 days of culture, either (1) HBP (500 uM, 100 uM, 20 uM, FIG. 2A-2B) (2) HMP-1bP (500 uM, 100 uM, FIG. 3A-3B), (3) H1b-ADP (100 nM, 20 nM, 4 nM, 0.8 nM, FIG. 4A-4B) was added to culture medium and cells were harvested 4 hours later.
# [9] = tested on: bovine alkaline phosphatase; assay: Incubation of H1b-ADP with bovine alkaline phosphatase; type: biochemical; conditions: H1b-ADP incubated with bovine alkaline phosphatase, increasing amount of Na3VO4
# Description: as §1
compound,measurement,setting,value
"Nc1ncnc2c1ncn2[C@@H]1O[C@H](COP(=O)(O)OP(=O)(O)O[C@@H]2OC([C@H](O)CO)[C@@H](O)C(O)C2O)C(F)C1O (stereo in doubt) [Compound 2, Adenosine-3′-fluoro-5′-(D-glycero-β-D-mannoheptopyranosyl) diphosphate]",tumor growth,[1],reduced tumor growth
same,IL8 secretion in HEK293 cells,[2],activate IL8 secretion
"Nc1ncnc2c1ncn2[C@@H]1O[C@H](COP(=O)(O)O)[C@@H](O)[C@H]1O [AMP, reference compound]",phosphatase activity in serum (H1b-ADP hydrolysis),[3]; pre-treatment of H1b-ADP with AMP before serum incubation,inhibited phosphatase activity and the inhibition was AMP dose-dependent
same,restoration of H1b-ADP's activity in the cell based assay (IL8 secretion),[2],could restore H1b-ADP's activity in the cell based assay
"CC(=O)OC[C@@H](OC(C)=O)[C@H]1O[C@@H](OP(=O)(O)OP(=O)(O)OC[C@H]2O[C@@H](n3cnc4c(N)ncnc43)[C@H](O)[C@@H]2F)[C@@H](OC(C)=O)[C@@H](OC(C)=O)[C@@H]1OC(C)=O [Compound 1, (2S,3S,4S,5R,6R)-2-(((((((2R,3S,4S,5R)-5-(6-amino-9H-purin-9-yl)-3-fluoro-4-hydroxytetrahydrofuran-2-yl)methoxy)(hydroxy)phosphoryl)oxy)(hydroxy)phosphoryl)oxy)-6-((R)-1,2-diacetoxyethyl)tetrahydro-2H-pyran-3,4,5-triyl triacetate]",tumor growth,[1],reduced tumor growth
same,dose that activates an inflammatory response in liver tissue,[4],2 nmol
same,dose that activates an inflammatory response in lung tissue,[4],200 nmol
same,IL8 secretion in HEK293 cells,[2],activate IL8 secretion
"Nc1ncnc2c1ncn2[C@@H]1O[C@H](COP(=O)(O)OP(=O)(O)O[C@@H]2O[C@H]([C@@H](O)CO)[C@@H](O)[C@H](O)[C@@H]2O)[C@@H](O)[C@H]1O [Compound H1b-ADP-6L, L-glycero-D-manno-heptose-1β-ADP]",TIFA phosphorylation,"[5]; ALPK1 2 nM, TIFA 1.6 uM, 50 uM ATP, compound 2 nM, 0.4 nM, 80 pM, 16 pM, 3 pM",activated ALPK1-dependent signaling in a manner similar to H1b-ADP
"O=P(O)(O)OC[C@@H](O)[C@H]1O[C@@H](OP(=O)(O)O)[C@@H](O)[C@@H](O)[C@@H]1O [HBP, D-glycero-β-D-manno-heptose 1,7-bisphosphate]",thermal shift of ALPK1,[6],Neither HBP nor HMP-1bP were able to induce a thermal shift
same,autophosphorylation of ALPK1,[7],not HBP or HMP-1bP induces ATP-dependent autophosphorylation
same,phosphorylation of the ALPK1 substrate TIFA,"[5]; FIG. 7, chemically-synthesized compounds",TIFA is phosphorylated only in the presence of H1b-ADP
same,IL-8 mRNA expression,[8],increased in an ALPK1-dependent manner
same,TNFα mRNA expression,[8],increased in an ALPK1-dependent manner
"[Na+].[Na+].[Na+].[O]=[V]([O-])([O-])[O-] [Na3VO4, sodium orthovanadate]",H1b-ADP hydrolysis in FBS,[3]; H1b-ADP pre-mixed with 1 mM Na3VO4 before incubation with FBS,effectively inhibited H1b-ADP hydrolysis
same,phosphatase activity on H1b-ADP,[9],the phosphatase activity was blocked by increasing amount of Na3VO4
same,restoration of H1b-ADP's activity in the cell based assay (IL8 secretion),[2],could restore H1b-ADP's activity in the cell based assay
